2 substances from article PMC11478212, “Antitumoral and Antiproliferative Potential of Synthetic Derivatives of Scorpion Peptide IsCT1 in an Oral Cavity Squamous Carcinoma Model” (Molecules, 2024) can be followed below.

Values joined by “and” are separate entries in the source; they are usually repeats but may differ in a detail not shown here. Equal values may be shown once. “Also recorded” adds a separate entry of the source. Read-outs that look alike come from different tables or passages of the source.

A short description of series [1]: Resistance to degradation in 25% fetal bovine serum. Particulars: 25% fetal bovine serum in water, 37 °C, HPLC peak area vs t = 0 h, triplicate. In kind it is in vitro ADME. On the procedure:
(§1) Figure 1 (a) Helical wheel projections of the IsCT1, AFPK-IsCT1, KKK-IsCT1, and IsCT-P peptides were generated using the Heliquest server (https://heliquest.ipmc.cnrs.fr/, accessed on 15 July 2024). In these projections, yellow, gray, and green circles represent hydrophobic amino acids, while blue and pink circles denote hydrophilic amino acids. (b) Resistance to degradation assays for all peptides were performed over 6 h in a solution containing 25% fetal bovine serum (FBS). These experiments were conducted in triplicate and aliquots were collected for analysis at 0, 0.5, 1, 2, 4, and 6 h of incubation. The aliquots were subsequently analyzed using high-performance liquid chromatography (HPLC) after each incubation period. The degradation kinetics of the peptides were determined by comparing the integrated peak area associated with the peptide at the start of the experiment (t = 0 h) with the integrated peak area at subsequent time points (t = 0.5, 1, 2, 4, 6 h). (c) The hemolytic activity of synthetic peptides analogous to IsCT1 was assessed on human erythrocytes within a concentration range of 0.13–128 μmol L^−1 in phosphate-buffered saline (PBS) (n = 3). A 1% solution of sodium dodecyl sulfate (SDS) in PBS served as a positive control, while PBS alone was used as a negative control. (d) A table summarizing the sequences, molecular weights, and physicochemical properties of the IsCT1, AFPK-IsCT1, and KKK-IsCT1 peptides. […]
Stability assays were conducted using GIBCO (Waltham, MA, USA) fetal bovine serum diluted to 25% in water, as described by Torres et al.. Briefly, peptide solutions were added to the serum solution and maintained at 37 °C. The experiments were carried out in triplicate and samples were taken at 0, 0.5, 1, 2, 4, and 6 h post incubation. The degradation kinetics were monitored using liquid chromatography and the percentage of remaining peptides was calculated by integrating the peak area of the peptide.

The test system of the next series is human erythrocytes. The series can be described thus: Hemolytic activity assay. In kind it is cell-based. Particulars: 0.13–128 μmol L−1 in PBS, n = 3; 1% SDS positive control, PBS negative control. On the procedure: as §1, with “3).” for “3). A 1% solution of sodium dodecyl sulfate (SDS) in PBS served as a positive control, while PBS alone was used as a negative control. (d) A table summarizing the sequences, molecular weights, and physicochemical properties of the IsCT1, AFPK-IsCT1, and KKK-IsCT1 peptides.”
Cell survival was assessed using an MTT assay. […] Absorbance was then measured at a wavelength of 540 nm using a microplate reader. […]

Another series deals with SCC-9 cells. The series can be described thus: MTT cell viability. It is filed as cell-based. Particulars: treatment 24 and 48 h (time of IC50 not given), absorbance 540 nm, N/IC50 = no IC50 for the tested concentrations, no toxicity, read-out: IC50. On the procedure:
(§2) Cell survival was assessed using an MTT assay. Tumor (SSC-9 and SSC-25) and normal cells (FN1 and J-774) were incubated in 96-well plates at a density of 10^5 cells/mL for 24 h. Subsequently, treatments were administered as described in Table 1 for 24 and 48 h. After the treatment period, the supernatant was aspirated and 100 μL of MTT at a concentration of 5 mg/mL (Calbiochem—Darmstadt, Germany) was added to the plate and incubated for 3 h at 37 °C with 5% CO2. Afterward, the content was removed and 200 μL of methanol was added to dissolve the formazan crystals. Absorbance was then measured at a wavelength of 540 nm using a microplate reader. The hemolysis assay was performed as previously reported.

The test system of another series is SCC-25 cells. The series can be described thus: MTT cell viability. In kind it is cell-based. The following applies: treatment 24 and 48 h (time of IC50 not given), absorbance 540 nm, N/IC50 = no IC50 for the tested concentrations, no toxicity, read-out: IC50. Here is the method: as §2
A further series relates to J774 cells. The series can be described thus: MTT cell viability. It is filed as cell-based. Particulars: J774 normal macrophages, treatment 24 and 48 h (time of IC50 not given), absorbance 540 nm, N/IC50 = no IC50 for the tested concentrations, no toxicity. On the procedure: as §2
Another series concerns FN1 cells. The series can be described thus: MTT cell viability. In kind it is cell-based. Particulars: FN1 normal human fibroblasts, treatment 24 and 48 h (time of IC50 not given), absorbance 540 nm, N/IC50 = no IC50 for the tested concentrations, no toxicity. On the procedure:
as §2

For another series, the system named is SCC-9 tumor cells. The series can be described thus: Mitochondrial potential by confocal microscopy (MitoRed/DAPI). It is filed as cell-based. The following applies: 24 h, IsCT-P and AC-AFPK-IsCT1 at IC50, others 100 µM, MitoRed, DAPI. On the procedure: (§3) Figure 5 Photomicrographs of tongue squamous cell carcinoma tumor cells (SCC-9 and SCC-25) and macrophages (J774), with mitochondria stained red (MitoRED) and nuclei stained blue (DAPI), analyzed using confocal laser microscopy. The indicated cells were treated at the IC50 values obtained for the IsCT-P and AC-AFPK-IsCT1 peptides and at a concentration of 100 µM for the other peptides for a period of 24 h.
(§4) For the confocal microscopy ana.lysis, tumor and normal cells were cultured in 24-well plates containing round coverslips with RPMI and Leibovitz medium, respectively, supplemented with 10% FBS and incubated with 5% CO2 at 37 °C for 24 h. Samples from the control and treated groups were subjected to the process of removing the culture medium and washing with RPMI medium. A total of 200 nML^−1 of MitoRed (Sigma-Aldrich, USA) was then added and the cells were incubated for 1 h in the dark at 37 °C. After incubation, the cells were washed with PBS, incubated with MitoRed, and fixed with 4% paraformaldehyde for 30 min. The cells were then washed with PBS and incubated. A total of 10 µL of VECTASHIELD® antifade with DAPI (Vector Laboratories, Burlingame, CA, USA) was used on the slide to promote the sealing and marking of the nucleus. The slides were stored in a closed place until the day of reading. Coverslips were placed on slides for observation under a confocal laser fluorescence microscope (Fluoview™ 300) and images were documented and analyzed.

A further series has as its system SCC-25 tumor cells. The series is described as above. It is filed as cell-based. Particulars: 24 h, IsCT-P and AC-AFPK-IsCT1 at IC50, others 100 µM, MitoRed, DAPI. On the procedure: as §3, §4

Turning to Ac-ALGKFWPKIKSLF-NH2 [AC-AFPK-IsCT1], in series [1] (30 min), the metabolised at 0.5 h was 18%. Further, the hemolytic activity entry with human erythrocytes was “did not show hemolytic activity at high concentrations”. The IC50 with SCC-9 cells is 90.5 µM; in the series with SCC-25 cells, 84.4 µM and 84.5 µM; in the series on J774 cells it was “N/IC50”; with FN1 cells it was “did not exhibit cytotoxic effects; also recorded: N/IC50”. For the same substance, the “change in mitochondrial electric potential (confocal)” value with SCC-9 tumor cells and in the series on SCC-25 tumor cells was “promoted a reduction in the mitochondrial electric potential” each time.

With H-ILKKIWKPIKKLF-NH2 [IsCT-P], the fraction remaining at 1 h in series [1] (1 h, read-out: peptide remaining intact after 1 h) is 70%. For the same substance, the fraction remaining at 4 h in series [1] (4 h, read-out: peptide remaining intact after 4 h) stood at 18%. Also, the hemolytic activity result in the series on human erythrocytes is listed as “caused the hemolysis”. Besides, the half-inhibitory concentration (IC50) with SCC-9 cells is 96.5 µM; in the series on SCC-25 cells, 81.3 µM; in the series on J774 cells it was “N/IC50”; in the series on FN1 cells (read-out: IC50) it was 80.3 µM and 80.4 µM. Also, the “change in mitochondrial electric potential (confocal)” value with SCC-9 tumor cells and in the series with SCC-25 tumor cells was “promoted a reduction in the mitochondrial electric potential” in each case.
